Target: T1, human 20S proteasome (H20S) (Homo sapiens, UniProt P28074+Q99436)
T1 construct: gene PSMB5; with Proteasome subunit beta type-6 (caspase-like site); Proteasome subunit alpha type-6; Proteasome subunit alpha type-2; Proteasome subunit alpha type-4; Proteasome subunit alpha type-7; Proteasome subunit alpha type-5; Proteasome subunit alpha type-1; Proteasome subunit alpha type-3; Proteasome subunit beta type-3; Proteasome subunit beta type-2; Proteasome subunit beta type-1; Proteasome subunit beta type-4
Experiment: inhibition of boc-RLR-AMC hydrolysis
Assay type: biochemical

SMILES: CC(=O)N[C@@H](CC(C)C)C(=O)N[C@@H](CC(C)C)C(=O)N[C@H](C=O)CCCNC(=N)N [leupeptin]
- inhibition at 40 µM: 94 to 100%

Reference: PMC9287138, “Proteasome activator 28γ (PA28γ) allosterically activates trypsin-like proteolysis by binding to the α-ring of the 20S proteasome” (The Journal of Biological Chemistry, 2022)
